The source of these data is ChEMBL document CHEMBL4330132, “5-Keto-3-cyano-2,4-diaminothiophenes as selective maternal embryonic leucine zipper kinase inhibitors” (Bioorg Med Chem Lett, 2019).

Molecules are shown by their SMILES.

Test [1] has as its system Tyrosine-protein kinase ABL1 (Homo sapiens), P00519 [H396P]. Put plainly: Binding affinity to human non-phosphorylated ABL1 H396P mutant (S229 to K512 residues) expressed in mammalian expression system assessed as residual binding level at 1 uM by Kinomescan method relative to control.
Test [2] deals with Tyrosine-protein kinase Blk (Homo sapiens) (UniProt P51451). The test is described as follows: Binding affinity to wild-type human partial length BLK (G211 to L503 residues) expressed in bacterial expression system assessed as residual binding level at 1 uM by Kinomescan method relative to control.
Test [3] addresses Calcium/calmodulin-dependent protein kinase type II subunit beta (Homo sapiens) (UniProt Q13554). The test is described as follows: Binding affinity to wild-type human partial length CAMK2B (M1 to Q380 residues) expressed in bacterial expression system assessed as residual binding level at 1 uM by Kinomescan method relative to control.
The target of test [4] is Calcium/calmodulin-dependent protein kinase kinase 1 (Homo sapiens) (UniProt Q8N5S9). Put plainly: Binding affinity to wild-type human partial length CAMKK1 (R65 to E414 residues) expressed in bacterial expression system assessed as residual binding level at 1 uM by Kinomescan method relative to control.
The target of test [5] is Cyclin-dependent kinase 11B (Homo sapiens) (UniProt P21127). The test is described as follows: Binding affinity to wild-type human partial length CDC2L1 (P353 to G692 residues) expressed in bacterial expression system assessed as residual binding level at 1 uM by Kinomescan method relative to control.
Test [6] addresses Discoidin domain-containing receptor 2 (Homo sapiens) (UniProt Q16832). Put plainly: Binding affinity to wild-type human partial length DDR2 (V555 to E855 residues) expressed in mammalian expression system assessed as residual binding level at 1 uM by Kinomescan method relative to control.
Test [7] deals with Eukaryotic translation initiation factor 2-alpha kinase 1 (Homo sapiens) (UniProt Q9BQI3). The test is described as follows: Binding affinity to wild-type human partial length EIF2AK1 (Q147 to E603 residues) expressed in mammalian expression system assessed as residual binding level at 1 uM by Kinomescan method relative to control.
Test [8] deals with Ephrin type-A receptor 6 (Homo sapiens) (UniProt Q9UF33). The test is described as follows: Binding affinity to wild-type human partial length EPHA6 (Y700 to E1046 residues) expressed in bacterial expression system assessed as residual binding level at 1 uM by Kinomescan method relative to control.
The target in test [9] is Tyrosine-protein kinase Fgr (Homo sapiens) (UniProt P09769). Put plainly: Binding affinity to wild-type human partial length FGR (L233 to T529 residues) expressed in bacterial expression system assessed as residual binding level at 1 uM by Kinomescan method relative to control.
The target of test [10] is Homeodomain-interacting protein kinase 2 (Homo sapiens) (UniProt Q9H2X6). The test is described as follows: Binding affinity to wild-type human partial length HIPK2 (M153 to S564 residues) expressed in mammalian expression system assessed as residual binding level at 1 uM by Kinomescan method relative to control.
In test [11] the target is Serine/threonine-protein kinase ICK (Homo sapiens) (UniProt Q9UPZ9). The test is described as follows: Binding affinity to wild-type human partial length ICK (M1 to P314 residues) expressed in mammalian expression system assessed as residual binding level at 1 uM by Kinomescan method relative to control.
Test [12] concerns the target Mast/stem cell growth factor receptor Kit (Homo sapiens) (UniProt P10721). Put plainly: Binding affinity to wild-type human partial length KIT (I571 to D952 residues) expressed in bacterial expression system assessed as residual binding level at 1 uM by Kinomescan method relative to control.
In test [13] the target is Serine/threonine-protein kinase 24 (Homo sapiens) (UniProt Q9Y6E0). The test is described as follows: Binding affinity to wild-type human partial length MST3 (A30 to S311 residues) expressed in bacterial expression system assessed as residual binding level at 1 uM by Kinomescan method relative to control.
Test [14] addresses Serine/threonine-protein kinase 26 (Homo sapiens) (UniProt Q9P289). The test is described as follows: Binding affinity to wild-type human full length MST4 (M1 to P416 residues) expressed in mammalian expression system assessed as residual binding level at 1 uM by Kinomescan method relative to control.
Test [15] addresses Interferon-induced, double-stranded RNA-activated protein kinase (Homo sapiens) (UniProt P19525). The test is described as follows: Binding affinity to wild-type human partial length PRKR (F247 to C551 residues) expressed in bacterial expression system assessed as residual binding level at 1 uM by Kinomescan method relative to control.
Test [16] deals with cAMP-dependent protein kinase catalytic subunit PRKX (Homo sapiens) (UniProt P51817). Put plainly: Binding affinity to wild-type human partial length PRKX (M1 to F358 residues) expressed in bacterial expression system assessed as residual binding level at 1 uM by Kinomescan method relative to control.
Test [17] deals with Proto-oncogene tyrosine-protein kinase receptor Ret (Homo sapiens), P07949 [M918T]. The test is described as follows: Binding affinity to human partial length RET M918T mutant (E713 to D1014 residues) expressed in bacterial expression system assessed as residual binding level at 1 uM by Kinomescan method relative to control.
The test system of test [18] is Proto-oncogene tyrosine-protein kinase receptor Ret (Homo sapiens), P07949 [V804M]. The test is described as follows: Binding affinity to human partial length RET V804M mutant (E713 to D1014 residues) expressed in bacterial expression system assessed as residual binding level at 1 uM by Kinomescan method relative to control.
Test [19] deals with Serine/threonine-protein kinase RIO2 (Homo sapiens) (UniProt Q9BVS4). Put plainly: Binding affinity to wild-type human partial length RIOK2 (M1 to D313 residues) expressed in mammalian expression system assessed as residual binding level at 1 uM by Kinomescan method relative to control.
In test [20] the target is Tyrosine-protein kinase Srms (Homo sapiens) (UniProt Q9H3Y6). Put plainly: Binding affinity to wild-type human partial length SRMS (L208 to P488 residues) expressed in mammalian expression system assessed as residual binding level at 1 uM by Kinomescan method relative to control.
Test [21] deals with SRSF protein kinase 2 (Homo sapiens) (UniProt P78362). Put plainly: Binding affinity to wild-type human full length SRPK2 (M1 to S686 residues) expressed in bacterial expression system assessed as residual binding level at 1 uM by Kinomescan method relative to control.
Test [22] addresses Tyrosine-protein kinase SYK (Homo sapiens) (UniProt P43405). Put plainly: Binding affinity to wild-type human partial length SYK (D354 to N635 residues) expressed in bacterial expression system assessed as residual binding level at 1 uM by Kinomescan method relative to control.
Test [23] has as its target Wee1-like protein kinase (Homo sapiens) (UniProt P30291). The test is described as follows: Binding affinity to wild-type human partial length WEE1 (M291 to K575 residues) expressed in bacterial expression system assessed as residual binding level at 1 uM by Kinomescan method relative to control.
Test [24] concerns the target Mitogen-activated protein kinase kinase kinase 12 (Homo sapiens) (UniProt Q12852). Put plainly: Binding affinity to wild-type human full length DLK (M1 to P859 residues) expressed in mammalian expression system assessed as residual binding level at 1 uM by Kinomescan method relative to control.

Chain of Discoidin domain-containing receptor 2 (Homo sapiens) (Q16832 whole entry, the tested form may be a part): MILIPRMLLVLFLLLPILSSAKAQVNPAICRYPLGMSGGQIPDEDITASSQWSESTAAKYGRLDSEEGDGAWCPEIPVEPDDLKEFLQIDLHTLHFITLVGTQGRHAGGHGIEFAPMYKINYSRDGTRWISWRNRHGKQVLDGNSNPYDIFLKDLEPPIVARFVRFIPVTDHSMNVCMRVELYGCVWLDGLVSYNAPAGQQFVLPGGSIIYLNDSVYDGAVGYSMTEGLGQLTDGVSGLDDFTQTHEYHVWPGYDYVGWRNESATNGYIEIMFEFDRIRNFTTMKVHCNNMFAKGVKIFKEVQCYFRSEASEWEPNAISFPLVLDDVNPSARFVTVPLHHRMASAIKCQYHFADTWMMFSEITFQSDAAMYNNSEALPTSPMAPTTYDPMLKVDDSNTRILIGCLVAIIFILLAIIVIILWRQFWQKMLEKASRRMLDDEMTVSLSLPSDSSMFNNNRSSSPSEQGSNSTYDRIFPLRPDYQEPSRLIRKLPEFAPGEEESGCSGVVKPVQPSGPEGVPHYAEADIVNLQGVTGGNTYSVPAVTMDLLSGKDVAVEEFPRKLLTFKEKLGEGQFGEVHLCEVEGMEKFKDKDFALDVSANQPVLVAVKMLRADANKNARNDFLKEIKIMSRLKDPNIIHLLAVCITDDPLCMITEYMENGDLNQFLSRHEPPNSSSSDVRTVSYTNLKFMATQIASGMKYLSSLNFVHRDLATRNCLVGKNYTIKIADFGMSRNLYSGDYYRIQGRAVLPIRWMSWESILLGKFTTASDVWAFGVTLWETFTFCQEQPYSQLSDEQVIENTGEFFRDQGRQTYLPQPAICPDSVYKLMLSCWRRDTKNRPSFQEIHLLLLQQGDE
Chain of Tyrosine-protein kinase Fgr (Homo sapiens) (P09769 2-529 limits assumed): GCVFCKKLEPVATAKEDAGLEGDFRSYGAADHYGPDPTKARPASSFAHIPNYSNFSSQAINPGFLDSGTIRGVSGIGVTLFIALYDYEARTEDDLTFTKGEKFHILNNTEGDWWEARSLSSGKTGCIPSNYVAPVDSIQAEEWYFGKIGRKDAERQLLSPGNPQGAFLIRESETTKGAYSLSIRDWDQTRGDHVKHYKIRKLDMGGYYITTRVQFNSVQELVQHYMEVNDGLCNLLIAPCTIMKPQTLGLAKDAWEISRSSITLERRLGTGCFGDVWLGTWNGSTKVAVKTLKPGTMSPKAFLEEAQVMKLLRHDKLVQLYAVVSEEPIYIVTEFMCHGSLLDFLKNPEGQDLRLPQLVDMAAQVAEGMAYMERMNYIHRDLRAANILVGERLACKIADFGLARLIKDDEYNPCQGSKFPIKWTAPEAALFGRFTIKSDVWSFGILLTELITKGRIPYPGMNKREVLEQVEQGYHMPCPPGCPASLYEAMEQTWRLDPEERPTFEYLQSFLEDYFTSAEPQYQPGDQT
Chain of Wee1-like protein kinase (Homo sapiens) (P30291 whole entry, looked up, the tested form may be a part): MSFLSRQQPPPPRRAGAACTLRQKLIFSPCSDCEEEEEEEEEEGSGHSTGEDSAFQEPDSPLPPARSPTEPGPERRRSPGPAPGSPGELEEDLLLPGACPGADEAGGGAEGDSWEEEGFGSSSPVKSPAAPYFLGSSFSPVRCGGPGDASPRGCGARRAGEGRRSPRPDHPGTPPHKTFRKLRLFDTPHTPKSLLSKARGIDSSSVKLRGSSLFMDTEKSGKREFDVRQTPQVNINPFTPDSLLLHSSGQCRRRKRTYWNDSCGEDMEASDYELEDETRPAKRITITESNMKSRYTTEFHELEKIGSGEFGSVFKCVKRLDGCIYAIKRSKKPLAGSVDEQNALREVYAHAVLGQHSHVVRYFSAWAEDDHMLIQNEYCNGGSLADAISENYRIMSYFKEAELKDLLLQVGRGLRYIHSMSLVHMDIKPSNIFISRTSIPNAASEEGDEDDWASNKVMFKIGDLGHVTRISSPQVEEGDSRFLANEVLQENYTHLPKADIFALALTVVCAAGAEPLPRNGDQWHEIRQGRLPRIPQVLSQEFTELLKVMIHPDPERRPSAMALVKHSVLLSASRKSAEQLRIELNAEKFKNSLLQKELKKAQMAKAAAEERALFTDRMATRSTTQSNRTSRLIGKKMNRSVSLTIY
Chain of Mast/stem cell growth factor receptor Kit (Homo sapiens) (P10721 whole entry, the tested form may be a part): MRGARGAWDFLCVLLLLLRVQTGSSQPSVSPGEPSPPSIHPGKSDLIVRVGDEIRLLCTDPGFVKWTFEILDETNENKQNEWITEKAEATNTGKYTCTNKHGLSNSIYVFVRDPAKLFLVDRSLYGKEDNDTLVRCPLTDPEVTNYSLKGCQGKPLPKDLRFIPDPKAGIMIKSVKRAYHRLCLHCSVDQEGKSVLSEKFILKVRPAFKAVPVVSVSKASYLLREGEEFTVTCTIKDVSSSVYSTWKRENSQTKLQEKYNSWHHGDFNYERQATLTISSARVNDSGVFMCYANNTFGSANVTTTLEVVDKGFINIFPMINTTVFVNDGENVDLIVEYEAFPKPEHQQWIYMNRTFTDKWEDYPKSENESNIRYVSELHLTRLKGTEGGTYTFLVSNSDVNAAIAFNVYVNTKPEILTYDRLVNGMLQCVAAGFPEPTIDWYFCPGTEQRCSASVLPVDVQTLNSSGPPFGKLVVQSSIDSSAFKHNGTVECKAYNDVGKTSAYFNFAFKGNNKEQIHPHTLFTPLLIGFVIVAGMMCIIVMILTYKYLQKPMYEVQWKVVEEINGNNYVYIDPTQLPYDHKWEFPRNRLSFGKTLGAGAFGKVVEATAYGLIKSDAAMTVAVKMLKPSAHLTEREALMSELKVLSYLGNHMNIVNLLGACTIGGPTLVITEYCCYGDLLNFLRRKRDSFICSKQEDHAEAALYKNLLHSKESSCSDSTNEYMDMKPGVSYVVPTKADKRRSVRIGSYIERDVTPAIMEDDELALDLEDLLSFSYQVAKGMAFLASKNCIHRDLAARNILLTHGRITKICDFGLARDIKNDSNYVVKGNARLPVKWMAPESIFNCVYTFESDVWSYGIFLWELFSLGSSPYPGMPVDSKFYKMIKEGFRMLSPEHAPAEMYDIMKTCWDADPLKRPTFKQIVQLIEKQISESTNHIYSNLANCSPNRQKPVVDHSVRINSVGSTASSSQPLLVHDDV
Chain of Proto-oncogene tyrosine-protein kinase receptor Ret (Homo sapiens), P07949 [M918T] (P07949 whole entry M918T, the tested form may be a part): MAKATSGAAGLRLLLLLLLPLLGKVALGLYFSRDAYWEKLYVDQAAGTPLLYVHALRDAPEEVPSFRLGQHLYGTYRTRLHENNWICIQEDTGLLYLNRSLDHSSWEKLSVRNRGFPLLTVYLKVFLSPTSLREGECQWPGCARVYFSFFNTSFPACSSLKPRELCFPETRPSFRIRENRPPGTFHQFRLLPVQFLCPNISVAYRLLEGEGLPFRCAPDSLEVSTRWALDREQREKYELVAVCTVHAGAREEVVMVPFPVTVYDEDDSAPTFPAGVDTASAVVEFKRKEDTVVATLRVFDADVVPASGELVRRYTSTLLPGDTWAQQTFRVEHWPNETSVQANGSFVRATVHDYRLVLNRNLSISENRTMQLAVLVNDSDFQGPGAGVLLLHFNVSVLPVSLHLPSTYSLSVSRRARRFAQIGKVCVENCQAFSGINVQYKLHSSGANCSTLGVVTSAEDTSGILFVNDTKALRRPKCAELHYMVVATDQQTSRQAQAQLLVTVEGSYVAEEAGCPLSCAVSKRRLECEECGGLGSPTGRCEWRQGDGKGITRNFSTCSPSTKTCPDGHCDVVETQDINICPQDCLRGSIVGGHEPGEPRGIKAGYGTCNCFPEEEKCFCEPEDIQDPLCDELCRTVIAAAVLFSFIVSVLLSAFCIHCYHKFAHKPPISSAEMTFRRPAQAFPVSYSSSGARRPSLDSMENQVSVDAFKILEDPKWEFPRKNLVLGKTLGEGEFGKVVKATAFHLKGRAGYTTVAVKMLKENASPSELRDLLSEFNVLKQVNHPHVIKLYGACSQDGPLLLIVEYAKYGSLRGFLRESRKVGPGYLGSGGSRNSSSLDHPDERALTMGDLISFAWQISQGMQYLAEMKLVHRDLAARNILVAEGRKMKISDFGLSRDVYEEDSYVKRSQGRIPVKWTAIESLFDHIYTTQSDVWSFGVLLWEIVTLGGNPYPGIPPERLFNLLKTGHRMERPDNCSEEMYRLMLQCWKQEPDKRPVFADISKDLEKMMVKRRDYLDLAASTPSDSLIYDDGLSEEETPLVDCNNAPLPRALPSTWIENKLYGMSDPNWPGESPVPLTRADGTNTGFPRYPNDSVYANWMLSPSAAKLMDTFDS
Chain of Mitogen-activated protein kinase kinase kinase 12 (Homo sapiens) (Q12852 whole entry, looked up, the tested form may be a part): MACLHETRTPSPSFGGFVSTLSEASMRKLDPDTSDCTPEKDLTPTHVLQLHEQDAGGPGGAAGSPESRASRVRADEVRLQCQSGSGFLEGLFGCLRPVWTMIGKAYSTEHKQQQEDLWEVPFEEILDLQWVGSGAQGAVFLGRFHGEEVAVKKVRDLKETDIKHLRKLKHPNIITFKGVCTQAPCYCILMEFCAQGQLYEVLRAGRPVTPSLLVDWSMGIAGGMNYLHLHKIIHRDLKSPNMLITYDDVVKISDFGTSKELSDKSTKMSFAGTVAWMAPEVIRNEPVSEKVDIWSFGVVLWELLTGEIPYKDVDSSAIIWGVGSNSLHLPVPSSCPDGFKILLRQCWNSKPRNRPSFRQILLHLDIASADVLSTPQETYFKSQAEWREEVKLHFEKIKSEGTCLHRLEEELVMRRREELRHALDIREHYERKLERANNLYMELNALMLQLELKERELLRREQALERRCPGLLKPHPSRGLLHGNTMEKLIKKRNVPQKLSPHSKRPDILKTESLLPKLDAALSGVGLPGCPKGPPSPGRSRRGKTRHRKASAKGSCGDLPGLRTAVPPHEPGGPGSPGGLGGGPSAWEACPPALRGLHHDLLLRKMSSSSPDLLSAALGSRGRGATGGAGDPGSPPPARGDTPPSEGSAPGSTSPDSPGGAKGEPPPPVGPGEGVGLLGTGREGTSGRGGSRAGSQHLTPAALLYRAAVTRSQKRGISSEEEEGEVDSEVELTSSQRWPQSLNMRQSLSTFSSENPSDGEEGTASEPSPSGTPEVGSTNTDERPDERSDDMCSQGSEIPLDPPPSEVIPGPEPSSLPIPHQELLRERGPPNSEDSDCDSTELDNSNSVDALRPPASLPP

For `CC(C)Nc1sc(C(=O)c2ccc(Cl)s2)c(N)c1C#N`, the Activity came to 100% in test [1]; 60% in [2]; 60% in test [3]; 72% in [4]; 100% in test [5]; 100% in test [6]. Besides, the Activity in test [7] worked out at 100%; in test [8] it was 86%; in [9], 97%; in test [10] it was 94%; in test [11], 100%; in test [12], 76%. Also, the Activity in [13] is 99%; in test [14] it was 100%; in [15], 68%; in test [16], 79%; in [17], 86%; in test [18] it was 94%. The Activity in test [19] worked out at 100%; in [20], 91%; in test [21], 93%; in test [22], 91%; in test [23] it was 94%; in test [24] it was 99%.
